In patent publication US20030148498A1, “Microorganism overproducing 5'-xanthylic acid” (priority 2001, published 2003):

What was measured:
Parent strain KFCC 10743 = assay: Growth of parent strain in minimum medium with 3,4-dehydroproline; format: cell-based, Corynebacterium ammoniagenes; design: key to growth: +: growth; −: no growth; settings: 5 days; for growth: 30° C.
Protocol: (§1) To be more specific, in this innovative research, we adopted Corynebacterium ammoniagenes KFCC 10743 as parent strain and treated it with UV radiation and mutation derivatives such as N-methyl-N′-nitro-N-nitrosoguanidine (NTG) according to ordinary procedure and, by adding 0 to 50 mg/L of proline analogue 3,4-dehydroproline (Sigma Company) in the minimum medium shown in the following Table 1, we developed growing mutant strains. From them, a strain which grows in 30 mg/L 3,4-dehydroproline was separated, named CJXPK001. And, it was deposited under the Budapest Treaty to the Korea Culture Center of Microorganisms on Dec. 7, 2001 with accession Number KCCM 10340.
(§2) Further, after adding 0 to 50 mg/L of 3,4-dehydroproline in the minimum medium shown in the above Table 1 according to concentration levels, the medium was fermented at 30° C. for 5 days. And the whole process was scrutinized to find the growth rates of the mutant strain CJXPK001 and the parent strain KFCC 10743.

Mutant strain CJXPK001 = assay: Growth of mutant strain in minimum medium with 3,4-dehydroproline; format: cell-based, Corynebacterium ammoniagenes; design: key: +: growth; −: no growth; settings: 30° C., 5 days
Protocol: as §1, §2

[1] = parent strain KFCC 10743, 30° C.

Q: Which growth (Parent strain KFCC 10743; 3,4-dehydroproline 5 mg/L) does the source give for `O=C(O)C1C=CCN1` (centres unmarked) [3,4-dehydroproline] here?
A: +

Q: What about the growth (Parent strain KFCC 10743; 3,4-dehydroproline 10 mg/L) of the same compound?
A: −

Q: And the growth (Parent strain KFCC 10743; 3,4-dehydroproline 20 mg/L)?
A: −

Q: What about the growth (Parent strain KFCC 10743; 3,4-dehydroproline 30 mg/L) of the same compound?
A: −

Q: What about the growth (Parent strain KFCC 10743; 3,4-dehydroproline 40 mg/L) of the same compound?
A: −

Q: And the growth (Parent strain KFCC 10743; 3,4-dehydroproline 50 mg/L)?
A: −

Q: What about the “3,4-dehydroproline concentration at which the strain showed resistance” value (Parent strain KFCC 10743; [1]) of the same compound?
A: 5 mg/L

Q: And the “3,4-dehydroproline concentration level at which no growth was observed” value (Parent strain KFCC 10743; [1])?
A: above 10 mg/L

Q: And the growth (Mutant strain CJXPK001; 3,4-dehydroproline 30 mg/L)?
A: +

Q: And the growth (Mutant strain CJXPK001; 3,4-dehydroproline 40 mg/L)?
A: −

Q: And the growth (Mutant strain CJXPK001; 3,4-dehydroproline 50 mg/L)?
A: −
